From patent US10780101B2, “Amide derivatives of squalamine for the treatment of infections” (VIRBAC, priority 2016, dated 2020)
≈ marks a conversion by molar mass, not a printed value. Read-outs that look alike come from different tables or passages of the source.

Key:
P. aeruginosa (1051575) [1] = assay: Potentiation of doxycycline activity (combination MIC); type: cell-based, Pseudomonas aeruginosa; settings: in presence of doxycycline 2 μg/mL; 24 hours at 37° C.
[2] = system: P. aeruginosa Human ATCC 27853; assay: MIC determination, P. aeruginosa human ATCC 27853; type: cell-based; settings: Pseudomonas aeruginosa, ATCC27853; Gram-negative; Mueller-Hinton medium, 24 h at 37° C.
Method: (§1) A negative control (2 mL of sterile culture medium)
(§2) A positive control (1940 μL of culture medium+40 μL of DMSO+20 μL of the bacterial suspension) from a thawed biological strain (the biological strains are stored at −80° C. in glycerol).
(§3) The tubes were incubated at 37° C. for 24 hours at 100 rpm.
(§4) The microorganisms were handled under a type L2 laboratory fume cupboard and, before any handling, a UV cycle was programmed and only sterile material was used. […] The chemical compounds to be tested were prepared in a DMSO/methanol mixture (50/50) at a concentration of 5 mg/mL.
(§5) After 24 hours of incubation, a measurement of the optical density was taken using a spectrophotometer at 600 nm, collecting 100 μL of the bacterial suspension diluted in 900 μL of the sterile culture medium. This test required the use of a 96-well plate and the required volume of the microbial suspension to be seeded was calculated for an OD corresponding to a value equal to 0.01 in each well. In this plate, the first line corresponded to the negative control (195 μL of sterile culture medium in each well), the second line corresponded to the positive control (seeded culture medium supplemented with 2% of DMSO), and the third line was loaded twice with bacterial suspension; 8 μL of test product were placed in each well. Thereafter, a 0.5 cascade dilution was performed from this line.
(§6) The first column served as inhibition control. A sterile filter was then placed on the microplate, allowing the passage of gases but not of contaminants. The microplate was incubated at 37° C. under a humid atmosphere for 24 hours.
(§7) NB: The medium used is Mueller-Hinton (MH) medium for bacteria. All the tests were performed in duplicate.
(§8) After incubation, the filter was replaced with a transparent film, and an OD reading was then taken in an iEMS plate spectrophotometer at 620 nm. Calculation of the minimum inhibitory concentration (MIC) was performed.

[3] = system: E. faecalis Human ATCC 29212; assay: MIC determination, E. faecalis human ATCC 29212; type: cell-based; settings: Enterococcus faecalis, ATCC29212; Gram-positive; Mueller-Hinton medium, 24 h at 37° C.
Method: as §1, §2, §3, §4, §5, §6, §7, §8

E. coli Human ATCC 28922 = assay: MIC determination, E. coli human ATCC 28922; type: cell-based; settings: Escherichia coli, ATCC28922; Gram-negative; Mueller-Hinton medium, 24 h at 37° C.
Method: as §1, §2, §3, §4, §5, §6, §7, §8

CHO-K1 cells = assay: WST1 cytotoxicity test on CHO-K1 cells; type: cell-based, Chinese hamster; settings: Cricetulus griseus, read-out: IC50 (μg/mL) CHO
Method: Test WST1 was used to measure the cytotoxic activity of the products. This is a colorimetric test which makes it possible to measure the viability and the degree of cell proliferation. It is based on cleavage of the colorless tetrazolium salts WST-1 (4-[3-(4-iodophenyl)-2-(4-nitrophenyl)-2H-5-tetrazolio]-1,3-benzene disulfonate) with mitochondrial dehydrogenases to the yellow-colored formazan derivative, which may be quantified by spectrophotometry at 420-480 nm.
The WST1 test was performed on Chinese hamster ovary cells. The CHO-K1 cells (ATCC, USA) are kept in culture in McCoy's 5A medium supplemented with 10% fetal calf serum, 2 mM of L-glutamine and a mixture of penicillin-streptomycin (100 U/ml: 10 μg/ml). The culture is incubated at 37° C. under an atmosphere enriched in CO2 (5%), and subcultured every two days.
The cells are transferred into 96-well plates (25000 cells/mL) in whole McCoy's 5A medium, and maintained for 24 hours at 37° C. under a humid atmosphere enriched in CO2 (5%). Increasing concentrations of test products are added to the wells in double tests and 8 growth controls containing the cells in the medium alone are included in each series of tests. After 24 hours at 37° C. (5% CO2), the culture medium is removed, the cells are rinsed in phosphate buffer (PBS) and 50 μL of PBS containing 10% of reagent WST1 are added to each well. After 20 minutes of incubation at 37° C., the results are read by spectrophotometry at 450 nm.
The results are expressed in dose-response relationships, modeled by nonlinear regression analysis using the TableCurve software. The 50% inhibitory concentration (IC50) represents the concentration of product that is capable of reducing the cell viability by 50%.

[4] = system: P. aeruginosa Animal (1051575); assay: MIC determination, P. aeruginosa animal (1051575); type: cell-based; settings: Pseudomonas aeruginosa; Gram-negative; Mueller-Hinton medium, 24 h at 37° C.
Method: as §1, §2, §3, §4, §5, §6, §7, §8

[5] = system: S. intermedius Animal (1051997); assay: MIC determination, S. intermedius animal (1051997); type: cell-based; settings: Staphylococcus intermedius; Gram-positive; Mueller-Hinton medium, 24 h at 37° C.
Method: as §1, §2, §3, §4, §5, §6, §7, §8

P. aeruginosa (1051575) [6] = assay: Potentiation of erythromycin activity (combination MIC); type: cell-based, Pseudomonas aeruginosa; settings: erythromycin 2 μg/mL; concentration of compound required to restore antibiotic activity
Method: (§9) This method requires the use of a 96-well plate: 100 μL of a liquid culture medium are placed in each well and then seeded with the microbial suspension prepared previously. The required volume to be seeded is calculated for an OD of 0.01, which corresponds to about 5×10^6 bacteria in each well. In this plate, the first line corresponds to a negative control (200 μL of sterile culture medium in each well), the second line corresponds to a positive control (100 μL of sterile culture medium+100 μL of the bacterial suspension), and the third line contains 192 μL of culture medium; 8 μL of compound of formula (I) to be tested are placed in each well. Thereafter, a cascade dilution is performed from this line. L of a doxycycline solution (1 mg dissolved in 20 mL) are then added to each well of lines 3 to 8 to obtain a final antibiotic concentration of 2 μg/mL. 92 μL of bacterial suspension are then added to lines 3 to 8. The results are read (the determination of the MIC (2 μg/mL of doxycycline) in the presence of X g/mL of compound of formula (I)) after 24 hours of incubation at 37° C. under a humid atmosphere. After 24 hours of incubation at 37° C., 40 μL of nitro tetrazolium iodide are added to each well to reveal the presence of live bacteria by staining the medium pink.
The procedure is identical to that indicated in Example 5 above. 8 μL of an antibiotic solution under consideration (1 mg dissolved in 20 mL) are added to obtain a final antibiotic concentration of 2 μg/mL instead of 8 μL of a doxycycline solution.
(§10) The results are given in table V. They indicate the concentration of compound of formula (I) required to be able to restore the activity of the antibiotic under consideration.

P. aeruginosa (1051575) [7] = assay: Potentiation of chloramphenicol activity (combination MIC); type: cell-based, Pseudomonas aeruginosa; settings: chloramphenicol 2 μg/mL; concentration of compound required to restore antibiotic activity
Method: as §9, with “L of a doxycycline solution (1 mg dissolved in 20 mL) are then added to each well of lines 3 to 8 to obtain a final antibiotic concentration of 2 μg/mL.” left out
The procedure is identical to that indicated in Example 5 above. […]
as §10

S. aureus Animal (340) = assay: MIC determination, S. aureus animal (340); type: cell-based; settings: Staphylococcus aureus; Gram-positive; Mueller-Hinton medium, 24 h at 37° C.
Method: as §1, §2, §3, §4, §5, §6, §7, §8

[8] = system: S. aureus Human ATCC 25923; assay: MIC determination, S. aureus human ATCC 25923; type: cell-based; settings: Staphylococcus aureus, ATCC25923; Gram-positive; Mueller-Hinton medium, 24 h at 37° C.
Method: as §1, §2, §3, §4, §5, §6, §7, §8

E. coli Animal (1956) = assay: MIC determination, E. coli animal (1956); type: cell-based; settings: Escherichia coli; Gram-negative; Mueller-Hinton medium, 24 h at 37° C.
Method: as §1, §2, §3, §4, §5, §6, §7, §8

SMILES | MIC - P. aeruginosa (1051575): content of compound of formula (I) to restore the doxycycline activity (at 2 μg/mL) (P. aeruginosa (1051575) [1]) [µg/mL] | MIC [2] [µg/mL] | MIC [3] [µg/mL] | MIC (E. coli Human ATCC 28922) [µg/mL] | IC50 (CHO-K1 cells; CHO-K1, 24 h) [µg/mL] | MIC [4] [µg/mL] | MIC [5] [µg/mL] | MIC P. aeruginosa (1051575) compound + erythromycin (P. aeruginosa (1051575) [6]) [µg/mL] | MIC P. aeruginosa (1051575) compound + chloramphenicol (P. aeruginosa (1051575) [7]) [µg/mL] | MIC (S. aureus Animal (340)) [µg/mL] | MIC [8] [µg/mL] | MIC (E. coli Animal (1956)) [µg/mL] | IC50 (CHO-K1 cells; Table III, WST1 test, CHO-K1 cells, 24 hours) [µg/mL]
CC(C)NC(=O)CC[C@@H](C)[C@H]1CCC2C3CCC4C[C@@H](NCCCN(CCCN)CCCN)CC[C@]4(C)C3CC[C@@]21C (stereo partly drawn) [(49), 3β-(tris(3-aminopropyl)amine)-N-isopropyllithocholamide] | 4 | 120 (≈ 204 µM) | 15 (≈ 25.5 µM) | 120 (≈ 204 µM) | 6 (≈ 10.2 µM) | 60 (≈ 102 µM) | 2 (≈ 3.4 µM) | 30 | 4 | 4 (≈ 6.8 µM) | 4 (≈ 6.8 µM) | 30 (≈ 51 µM) | –
CC(C)NC(=O)CC[C@@H](C)[C@H]1CCC2C3CCC4C[C@@H](NCCCN(CCCN)CCCN)CC[C@]4(C)C3C[C@H](O)[C@@]21C (stereo partly drawn) [(42), 3β-(tris(3-aminopropyl)amine)-N-isopropyldeoxycholamide] | 1 | 30 (≈ 49.7 µM) | 30 (≈ 49.7 µM) | > 120 | 40 (≈ 66.2 µM) | 60 (≈ 99.3 µM) | 1 (≈ 1.66 µM) | 8 | 2 | 4 (≈ 6.62 µM) | 4 (≈ 6.62 µM) | 30 (≈ 49.7 µM) | –
CC(C)NC(=O)CC[C@@H](C)[C@H]1CCC2C3C(C[C@H](O)[C@@]21C)[C@@]1(C)CC[C@H](NCCNCCNCCNCCNCCN)CC1C[C@H]3O (stereo partly drawn) [(21), 3β-(pentaethylenehexamine)-N-isopropylcholamide] | – | 130 (≈ 196 µM) | 30 (≈ 45.2 µM) | 130 (≈ 196 µM) | – | 30 (≈ 45.2 µM) | 8 (≈ 12 µM) | 30 | 8 | 17 (≈ 25.6 µM) | 17 (≈ 25.6 µM) | 30 (≈ 45.2 µM) | 60 (≈ 90.4 µM)
CC(C)N(C(=O)CC[C@@H](C)[C@H]1CCC2C3C(CC[C@@]21C)[C@@]1(C)CC[C@H](NCCCNCCCCNCCCN)CC1C[C@H]3O)C(C)C (stereo partly drawn) [(50), 3β-spermino-N,N-diisopropylchenodeoxycholamide] | 2 | 17 (≈ 25.8 µM) | 4 (≈ 6.06 µM) | > 130 | 25 (≈ 37.9 µM) | 17 (≈ 25.8 µM) | 2 (≈ 3.03 µM) | 4 | 2 | 2 (≈ 3.03 µM) | 4 (≈ 6.06 µM) | 17 (≈ 25.8 µM) | –
CC(C)NC(=O)CC[C@@H](C)[C@H]1CCC2C3C(CC[C@@]21C)[C@@]1(C)CC[C@H](NCCN(CCN)CCN)CC1C[C@H]3O (stereo partly drawn) [(45), 3β-(tris(2-aminoethyl)amine)-N-isopropylchenodeoxycholamide] | 7 | 110 (≈ 196 µM) | 14 (≈ 24.9 µM) | 110 (≈ 196 µM) | 60 (≈ 107 µM) | 28 (≈ 49.8 µM) | 2 (≈ 3.56 µM) | 28 | 7 | 4 (≈ 7.12 µM) | 7 (≈ 12.5 µM) | 14 (≈ 24.9 µM) | –
CC(C)NC(=O)CC[C@@H](C)[C@H]1CCC2C3C(C[C@H](O)[C@@]21C)[C@@]1(C)CC[C@H](NCCCN2CCN(CCCN)CC2)CC1C[C@H]3O (stereo partly shown) [(6)] | 8 | 218 (≈ 345 µM) | 32 (≈ 50.6 µM) | 32 (≈ 50.6 µM) | 100 (≈ 158 µM) | 64 (≈ 101 µM) | 16 (≈ 25.3 µM) | – | – | 32 (≈ 50.6 µM) | 16 (≈ 25.3 µM) | 64 (≈ 101 µM) | –
CC(C)N(C(=O)CC[C@@H](C)[C@H]1CCC2C3C(CC[C@@]21C)[C@@]1(C)CC[C@H](NCCCNCCNCCCN)CC1C[C@H]3O)C(C)C (stereo partly drawn) [(54), 3β-(bis(3-aminopropyl)ethylenediamine)-N,N-diisopropylchenodeoxycholamide] | 2 | 32 (≈ 50.6 µM) | 2 (≈ 3.16 µM) | 125 (≈ 198 µM) | 22 (≈ 34.8 µM) | 16 (≈ 25.3 µM) | 2 (≈ 3.16 µM) | – | – | 4 (≈ 6.33 µM) | 4 (≈ 6.33 µM) | 8 (≈ 12.7 µM) | –
